As a reminder, the IC50 is the concentration at which inhibition is half-maximal. A lower IC50 goes with greater potency.

The target in the assay is CB1 receptor (Homo sapiens, UniProt P21554). Kind of assay: CB1 cAMP Antagonist Assay (LANCE Ultra cAMP kit). The assay is classed as cell-based. The following applies: Flp-In CHO cells stably expressing the CB1 receptor; forskolin and CP55940 agonist at EC90; cAMP FRET readout. From the text: CB1 cAMP Antagonist Assay
Chain of CB1 receptor (P21554 whole entry): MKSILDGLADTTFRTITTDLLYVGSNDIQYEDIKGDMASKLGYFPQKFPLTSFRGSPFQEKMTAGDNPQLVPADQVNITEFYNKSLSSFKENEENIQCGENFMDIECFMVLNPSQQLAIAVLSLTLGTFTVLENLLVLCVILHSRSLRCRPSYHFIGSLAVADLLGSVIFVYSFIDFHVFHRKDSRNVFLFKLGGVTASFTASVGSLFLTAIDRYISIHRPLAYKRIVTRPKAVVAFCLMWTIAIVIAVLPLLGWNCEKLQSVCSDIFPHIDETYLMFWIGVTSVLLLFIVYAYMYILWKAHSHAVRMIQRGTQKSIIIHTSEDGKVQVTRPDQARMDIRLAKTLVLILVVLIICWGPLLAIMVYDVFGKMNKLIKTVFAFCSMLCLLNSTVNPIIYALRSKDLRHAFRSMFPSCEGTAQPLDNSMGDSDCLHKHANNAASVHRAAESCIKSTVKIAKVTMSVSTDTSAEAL
LANCE Ultra cAMP kit (Perkin Elmer) was used to quantitate the amount of 3′,5′-cyclic adenosine monophosphate (cAMP) produced in Flp-In CHO (Invitrogen) cells stably expressing the CB1 receptor.
Forskolin was initially titrated to determine the response of the cells. The EC90 of forskolin was used for compound testing. CP55940 was titrated and used with EC90 of forskolin to determine the level of agonist stimulation. EC90 of the agonist was used for subsequent compound testing.
Forskolin (Sigma), CP55940 (Cayman Chemicals), and AM251 (MCE) were diluted in 100% DMSO, starting at 100 mM, 1 mM, and 1 mM respectively, in 3-fold serial dilutions. Test compounds were diluted in 100% DMSO starting from 10 mM, 3-fold dilutions. The cAMP assay buffer contains 1x Hank’s Buffered Saline Solution with Ca^2+ and Mg^2+ (Invitrogen), 5.3 mM HEPES (Invitrogen), 0.05% BSA, 0.5 mM IBMX (Sigma).
For all assays, cells were harvested, counted, and diluted in cAMP assay buffer to 1× 10^5 cells/mL. Only cells with viability >85% were used for the assay. Cells were seeded at 1000 cells/well in 384-well plates and 10 nL/well AM251 or test compound was added and incubated at 37° C. for 10 min. […] To detect the amount of cAMP produced, 5 µL of a 100x diluted stock of Eu-cAMP tracer and 5 µL of 200x diluted stock of Ulight-anti-cAMP were added to each well, and the plate incubated at 25° C. for 15 min. The FRET signal was read using an EnVision microplate reader (λex=320 nm, λem=615 nm and 665 nm).
The IC50 is determined by fitting the percentage of inhibition as a function of compound concentrations with the Hill equation, using a 4-parameter fit in either XLfit or GraphPad Prism.
(TR-FRET usually uses a lanthanide donor and a delayed reading to cut background.)
`O=c1n(Cc2ccc(Cl)cc2)nc(N2CC3(CCc4ccccc43)C(c3ccc(Cl)cc3)=N2)n1CCO` (stereo in doubt) [Compound 118, 3-[(1R)-3-(4-chlorophenyl)-1,2,3,5-tetrahydrospiro[indene-1,4-pyrazol]-1-yl]-1-[(4-chlorophenyl)methyl]-4-(2-hydroxyethyl)-4,5-dihydro-1H-1,2,4-triazol-5-one] showed an IC50 of 100 to 1000 nM.

In turn, `COCCn1c(N2CC3(CCc4ccccc43)C(c3ccc(Cl)cc3)=N2)nn(Cc2ccc(Cl)cc2)c1=O` (stereo in doubt) [Compound 120, 3-[(1R)-3-(4-chlorophenyl)-1,2,3,5-tetrahydrospiro[indene-1,4-pyrazol]-1-yl]-1-[(4-chlorophenyl)methyl]-4-(2-methoxyethyl)-4,5-dihydro-1H-1,2,4-triazol-5-one] had an IC50 of 1000 to 5000 nM. The figure for `O=c1n(Cc2ccc(Cl)cc2)nc(N2CC3(CCc4ccccc43)C(c3ccc(Cl)cc3)=N2)n1CCO` (stereo in doubt) [Compound 121, 3-[(1S)-3-(4-chlorophenyl)-1,2,3,5-tetrahydrospiro[indene-1,4-pyrazol]-1-yl]-1-[(4-chlorophenyl)methyl]-4-(2-hydroxyethyl)-4,5-dihydro-1H-1,2,4-triazol-5-one] is 100 to 1000 nM; for `COCCn1c(N2CC3(CCc4ccccc43)C(c3ccc(Cl)cc3)=N2)nn(Cc2ccc(Cl)cc2)c1=O` (stereo in doubt) [Compound 123, 3-[(1S)-3-(4-chlorophenyl)-1,2,3,5-tetrahydrospiro[indene-1,4-pyrazol]-1-yl]-1-[(4-chlorophenyl)methyl]-4-(2-methoxyethyl)-4,5-dihydro-1H-1,2,4-triazol-5-one] it is 100 to 1000 nM. The figure for `NC(=O)CCn1c(N2CC3(CCc4ccccc43)C(c3ccc(Cl)cc3)=N2)nn(Cc2ccc(Cl)cc2)c1=O` (stereo in doubt) [Compound 132, 3-[3-[(1R)-3-(4-chlorophenyl)-1,2,3,5-tetrahydrospiro[indene-1,4-pyrazol]-1-yl]-1-[(4-chlorophenyl)methyl]-5-oxo-4,5-dihydro-1H-1,2,4-triazol-4-yl]propanamide] is 1000 to 5000 nM; for `NC(=O)CCn1c(N2CC3(CCc4ccccc43)C(c3ccc(Cl)cc3)=N2)nn(Cc2ccc(Cl)cc2)c1=O` (stereo in doubt) [Compound 133, 3-[3-[(1S)-3-(4-chlorophenyl)-1,2,3,5-tetrahydrospiro[indene-1,4-pyrazol]-1-yl]-1-[(4-chlorophenyl)methyl]-5-oxo-4,5-dihydro-1H-1,2,4-triazol-4-yl]propanamide] it is 1000 to 5000 nM.

With `Cn1c(N2CC3(CCc4ccccc43)C(c3ccc(Cl)cc3)=N2)nn(CC2CCCCC2)c1=O` (stereo in doubt) [Compound 139, 3-[(1S)-3-(4-chlorophenyl)-1,2,3,5-tetrahydrospiro[indene-1,4-pyrazol]-1-yl]-1-(cyclohexylmethyl)-4-methyl-4,5-dihydro-1H-1,2,4-triazol-5-one], the IC50 lay within 100 to 1000 nM. `Cn1c(N2CC3(CCc4ccccc43)C(c3ccc(Cl)cc3)=N2)nn(CC2CCCCC2)c1=O` (stereo in doubt) [Compound 140, 3-[(1R)-3-(4-chlorophenyl)-1,2,3,5-tetrahydrospiro[indene-1,4-pyrazol]-1-yl]-1-(cyclohexylmethyl)-4-methyl-4,5-dihydro-1H-1,2,4-triazol-5-one] yielded an IC50 of 1000 to 5000 nM.

For `C[C@@H](c1ccc(Cl)cc1)n1nc(N2CC(c3ccccc3)C(c3ccc(Cl)cc3)=N2)n(CC(N)=O)c1=O` (stereo in doubt) [Compound 150, 2-[3-[(4S)-3-(4-chlorophenyl)-4-phenyl-4,5-dihydropyrazol-1-yl]-1-[(1S)-1-(4-chlorophenyl)ethyl]-5-oxo-1,2,4-triazol-4-yl]acetamide], the IC50 was in the range of 100 to 1000 nM.

For `Cn1c(N2C[C@@H](c3ccccc3)C(c3ccc(Cl)cc3)=N2)nn(-c2ccc(Cl)cc2)c1=O` [Compound 100], the IC50 is > 5000 nM. The figure for `Cn1c(N2C[C@H](c3ccccc3)C(c3ccc(Cl)cc3)=N2)nn(-c2ccc(Cl)cc2)c1=O` [Compound 101, 1-(4-chlorophenyl)-3-[(4S)-3-(4-chlorophenyl)-4-phenyl-4,5-dihydro-1H-pyrazol-1-yl]-4-methyl-4,5-dihydro-1H-1,2,4-triazol-5-one] is < 100 nM; for `Cn1c(N2C[C@H](c3ccccc3)C(c3ccc(Cl)cc3)=N2)nn(Cc2ccc(Cl)cc2)c1=O` [Compound 102] it is 100 to 1000 nM; for `Cn1c(N2C[C@@H](c3ccccc3)C(c3ccc(Cl)cc3)=N2)nn(Cc2ccc(Cl)cc2)c1=O` [Compound 103] it is < 100 nM. Under `CCOC(=O)Cn1c(N2C[C@H](c3ccccc3)C(c3ccc(Cl)cc3)=N2)nn(-c2ccc(Cl)cc2)c1=O` [Compound 104, ethyl 2-[1-(4-chlorophenyl)-3-[(4S)-3-(4-chlorophenyl)-4-phenyl-4,5-dihydro-1H-pyrazol-1-yl]-5-oxo-4,5-dihydro-1H-1 ,2,4-triazol-4-yl]acetate] stands < 100 nM; under `CCOC(=O)Cn1c(N2C[C@@H](c3ccccc3)C(c3ccc(Cl)cc3)=N2)nn(-c2ccc(Cl)cc2)c1=O` [Compound 105, ethyl 2-[1-(4-chlorophenyl)-3-[(4R)-3-(4-chlorophenyl)-4-phenyl-4,5-dihydro-1H-pyrazol-1-yl]-5-oxo-4,5-dihydro-1H-1,2,4-triazol-4-yl]acetate], < 100 nM. In turn, `NC(=O)Cn1c(N2C[C@@H](c3ccccc3)C(c3ccc(Cl)cc3)=N2)nn(Cc2ccc(Cl)cc2)c1=O` [Compound 106, 2-[3-[(4R)-3-(4-chlorophenyl)-4-phenyl-4,5-dihydro-1H-pyrazol-1-yl]-1-[(4-chlorophenyl)methyl]-5-oxo-4,5-dihydro-1H-1,2,4-triazol-4-yl]acetamide] yielded an IC50 of 1000 to 5000 nM. Under `NC(=O)Cn1c(N2C[C@H](c3ccccc3)C(c3ccc(Cl)cc3)=N2)nn(Cc2ccc(Cl)cc2)c1=O` [Compound 107, 2-[3-[(4S)-3-(4-chlorophenyl)-4-phenyl-4,5-dihydro-1H-pyrazol-1-yl]-1-[(4-chlorophenyl)methyl]-5-oxo-4,5-dihydro-1H-1,2,4-triazol-4-yl]acetamide] stands < 100 nM; under `NC(=O)Cn1c(N2C[C@@H](c3ccccc3)C(c3ccc(Cl)cc3)=N2)nn(-c2ccc(Cl)cc2)c1=O` [Compound 108, 2-[1-(4-chlorophenyl)-3-[(4R)-3-(4-chlorophenyl)-4-phenyl-4,5-dihydro-1H-pyrazol-1-yl]-5-oxo-4,5-dihydro-1H-1 ,2,4-triazol-4-yl]acetamide], < 100 nM; under `Cn1c(N2C[C@]3(CCc4ccccc43)C(c3ccc(Cl)cc3)=N2)nn(-c2ccc(Cl)cc2)c1=O` [Compound 109], > 5000 nM. Under `COCCn1c(N2C[C@]3(CCc4ccccc43)C(c3ccc(Cl)cc3)=N2)nn(-c2ccc(Cl)cc2)c1=O` [Compound 110] stands > 5000 nM; under `NC(=O)Cn1c(N2C[C@H](c3ccccc3)C(c3ccc(Cl)cc3)=N2)nn(-c2ccc(Cl)cc2)c1=O` [Compound 111, (S)-2-(1-(4-chlorophenyl)-3-(3-(4-chlorophenyl)-4-phenyl-4,5-dihydro-1H-pyrazol-1-yl)-5-oxo-1,5-dihydro-4H-1,2,4-triazol-4-yl)acetamide], < 100 nM; under `O=c1n(-c2ccc(Cl)cc2)nc(N2C[C@@]3(CCc4ccccc43)C(c3ccc(Cl)cc3)=N2)n1CCO` [Compound 112], > 5000 nM.

`Cn1c(N2C[C@@]3(CCc4ccccc43)C(c3ccc(Cl)cc3)=N2)nn(Cc2ccc(Cl)cc2)c1=O` [Compound 113] registered an IC50 of 1000 to 5000 nM. The figure for `O=c1n(-c2ccc(Cl)cc2)nc(N2C[C@]3(CCc4ccccc43)C(c3ccc(Cl)cc3)=N2)n1CCO` [Compound 114, 1-(4-chlorophenyl)-3-[(1R)-3-(4-chlorophenyl)-1,2,3,5-tetrahydrospiro[indene-1,4-pyrazol]-1-yl]-4-(2-hydroxyethyl)-4,5-dihydro-1H-1,2,4-triazol-5-one] is 100 to 1000 nM; for `Cn1c(N2C[C@]3(CCc4ccccc43)C(c3ccc(Cl)cc3)=N2)nn(Cc2ccc(Cl)cc2)c1=O` [Compound 115, 3-[(1R)-3-(4-chlorophenyl)-1,2,3,5-tetrahydrospiro[indene-1,4-pyrazol]-1-y1]-1-[(4-chlorophenyl)methyl]-4-methyl-4,5-dihydro-1H-1,2,4-triazol-5-one] it is 1000 to 5000 nM.

In the case of `Cn1c(N2C[C@@]3(CCc4ccccc43)C(c3ccc(Cl)cc3)=N2)nn(-c2ccc(Cl)cc2)c1=O` [Compound 116], the IC50 is > 5000 nM. As to `COCCn1c(N2C[C@@]3(CCc4ccccc43)C(c3ccc(Cl)cc3)=N2)nn(-c2ccc(Cl)cc2)c1=O` [Compound 117], the IC50 was > 5000 nM. The figure for `NC(=O)Cn1c(N2C[C@@]3(CCc4ccccc43)C(c3ccc(Cl)cc3)=N2)nn(-c2ccc(Cl)cc2)c1=O` [Compound 119] is > 5000 nM.
